Laboratory results reported in patent publication US11912660B2, “S6K1 protein kinase inhibitors as cancer therapeutics” (Xavier University of Louisiana, priority 2020, dated 2024).
Read-outs that look alike come from different tables or passages of the source.

What was measured:
[1] = target: T1, RPS6K1 (Homo sapiens (Human), UniProt P23443); assay: High-throughput screening and IC50 determination for inhibition of RPS6K1 (FRET based assay by ThermoFisher); type: biochemical; conditions: table head prints 10 µM; text says 10 μM concentration
T1 sequence (P23443 whole entry): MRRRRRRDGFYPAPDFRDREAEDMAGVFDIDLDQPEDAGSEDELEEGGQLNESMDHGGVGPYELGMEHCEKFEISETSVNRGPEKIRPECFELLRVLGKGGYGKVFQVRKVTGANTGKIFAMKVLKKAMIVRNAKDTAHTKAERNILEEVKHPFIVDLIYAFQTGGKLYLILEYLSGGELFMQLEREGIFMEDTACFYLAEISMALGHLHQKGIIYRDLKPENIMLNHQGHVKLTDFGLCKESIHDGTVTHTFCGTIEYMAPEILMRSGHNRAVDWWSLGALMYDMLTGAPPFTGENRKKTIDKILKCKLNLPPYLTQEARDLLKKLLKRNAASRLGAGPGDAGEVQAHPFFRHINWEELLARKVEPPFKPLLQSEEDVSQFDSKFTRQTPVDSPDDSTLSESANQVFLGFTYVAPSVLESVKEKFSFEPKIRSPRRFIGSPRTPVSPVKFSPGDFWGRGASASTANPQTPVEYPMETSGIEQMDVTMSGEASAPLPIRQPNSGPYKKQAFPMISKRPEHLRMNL

[2] = system: ER positive breast cancer cell line MCF7; assay: MTT assay growth inhibition; type: cell-based; conditions: FIG. 1B
Source text: (§1) Cell viability assays used the methods outlined in an earlier publication: Identification of New Mono/Dihydroxynaphthoquinone as Lead Agents that Inhibit the Growth of Refractive and Triple-negative Breast Cancer Cell lines. Schroeder, R.; Sfondouris, M.; Goyal, N.; Komati, R.; Weerathunga, A.; Gettridge, C.; Stevens, C. L. K.; Jones, F. E.; Sridhar, J. ACS Omega, 2019 Jun 19. 4(6):10610-10619.
(§2) RPS6K1 is known to play a critical role in several cancers including HER2 positive breast cancer, ER positive breast cancer, prostate cancer and small cell lung cancer. To verify whether RPS6K1 inhibitors of the instant disclosure could inhibit growth of these types of cancers, MTT assays were performed using the HER2 positive breast cancer cell line SKBR3, ER positive breast cancer cell line MCF7, and the prostate cancer cell line DU-145. The MTT assay is a colorimetric assay for assessing cell metabolic activity. NAD(P)H-dependent cellular oxidoreductase enzymes may, under defined conditions, reflect the number of viable cells present. These enzymes are capable of reducing the tetrazolium dye MTT 3-(4,5-dimethylthiazol-2-yl)-2,5-diphenyltetrazolium bromide to its insoluble formazan, which has a purple color.

[3] = system: HER2 positive breast cancer cell line SKBR3; assay: MTT assay growth inhibition; type: cell-based; conditions: for IC50: Homo sapiens; for growth inhibition: SKBR3, MTT, FIG. 1A
Source text: as §1, §2

[4] = target: T1, RPS6K1; assay: High-throughput screening and IC50 determination for inhibition of RPS6K1 (FRET based assay by ThermoFisher); type: biochemical; conditions: dose response curve
Source text: These three compounds were then subjected to IC50 value determination (dose response curve) using the same FRET based assay by ThermoFisher (Table 5).

[5] = system: prostate cancer cell line DU-145; assay: MTT assay growth inhibition; type: cell-based; conditions: DU-145, MTT, FIG. 1C
Source text: as §1, §2

[6] = SK-BR-3, SKBR3 breast cancer cell line, MTT, read-out: IC50 values of growth inhibition

Row | SMILES | RPS6K1% inhibition at 10 µM compound concentration [1] | growth inhibition [2] | IC50 [3, 6] | growth inhibition [3] | IC50 [4] | growth inhibition [5] | IC50 ([3]; SK-BR-3, read-out: IC50 values of growth inhibition)
1 | Nc1cc(NC(=O)c2ccccc2)cc2c1C(=O)NC2=O [RJ-19] | 71% | not as effective | 3.3 µM | showed inhibition | 3.48 µM |  | 
2 | Nc1cc(NC(=O)c2ccccc2Br)cc2c1C(=O)NC2=O [RJ-22] | 86% | excellent growth inhibition | 1.9 µM | excellent growth inhibition | > 2.78 µM | excellent growth inhibition | 
3 | Nc1cc(NC(=O)c2cc([N+](=O)[O-])cc([N+](=O)[O-])c2)cc2c1C(=O)NC2=O [RJ-28] | 79% | excellent growth inhibition |  | excellent growth inhibition | 2.56 µM | excellent growth inhibition | 4.7 µM
